In US20130280741A1, “METHOD AND SYSTEM OF DETECTING DIOXIN-LIKE COMPOUNDS” (priority 2012, published 2013):

Legend:
[1] = molecular target: T1, AHR-RL and ARNT-YFP (Homo sapiens, UniProt P35869); experiment: BRET assay in AAPA cells; format: cell-based
T1 construct: expressed in transfected cells
Description: (§1) Tetracycline-regulated expression cells (T-REx™ cells) (Invitrogen, Carlsbad, Calif., USA) were transfected with AHR-RL, AIP-HIS and P23-HIS by lipofectamin 2000™ transfection reagent (Invitrogen, Carlsbad, Calif., USA) according to the manufacturer's instructions. Transfected cells were cultured in DMEM growth medium (Gibco, USA) supplemented with 10% fetal bovine serum (FBS), (Gibco, USA), 5 μg/ml Blasticidin, 250 μg/ml Zeocin and 500 μg/ml G418. The optimal cell lines were then transfected with ARNT-YFP or HSP90-YFP and selected with 200 μg/ml Hygromycin to obtain a stable cell line transfected with ARNT-YFP (called as “AAPA cells”) and obtain a stable cell line transfected with HSP90-YFP (called as “AAPH cells”).
For the inducible protein expression and AHR complex formation, the AAPA cells, which were stably co-transfected with AHR-RL, AIP-HIS, P23-HIS and ARNT-YFP, were prepared following the method as described in Example 2 and then were treated with 1 μg/ml tetracycline for 48 hours. Then, the treated cells were washed by phosphate-buffered saline (PBS) twice.
For dioxin detection, different concentrations of 3-methylcholanthrene (3MC) (Boehringer Mannheim, Mannheim, Germany) were mixed with the cells and cultured in a 96-well white polystyrene plate (Corning, USA) at 37° C. for 1 hour. The BRET signals were determined by addition of coelenterazine, a substrate of Renilla Luciferase, to a final concentration of […].

[2] = molecular target: T2, AHR-RL (Homo sapiens, UniProt P35869); experiment: Renilla luciferase signal of AHR-RL in cell-free AAPA whole cell lysate; format: biochemical; conditions: for detection limits / Renilla luciferase signals in the cell-free system: AAPA cell free lysate, 37° C.; for Renilla luciferase signals in the cell-free system: dose-dependent (FIGS. 4 and 5); for lowest concentration at which AHR-RL signal degradation can be detected: cell-free system
T2 construct: expressed in transfected cells; host or cells: sonicated, cleared lysate of tetracycline-induced AAPA cells (T-REx cells, Invitrogen)
T2 sequence (P35869 11-848): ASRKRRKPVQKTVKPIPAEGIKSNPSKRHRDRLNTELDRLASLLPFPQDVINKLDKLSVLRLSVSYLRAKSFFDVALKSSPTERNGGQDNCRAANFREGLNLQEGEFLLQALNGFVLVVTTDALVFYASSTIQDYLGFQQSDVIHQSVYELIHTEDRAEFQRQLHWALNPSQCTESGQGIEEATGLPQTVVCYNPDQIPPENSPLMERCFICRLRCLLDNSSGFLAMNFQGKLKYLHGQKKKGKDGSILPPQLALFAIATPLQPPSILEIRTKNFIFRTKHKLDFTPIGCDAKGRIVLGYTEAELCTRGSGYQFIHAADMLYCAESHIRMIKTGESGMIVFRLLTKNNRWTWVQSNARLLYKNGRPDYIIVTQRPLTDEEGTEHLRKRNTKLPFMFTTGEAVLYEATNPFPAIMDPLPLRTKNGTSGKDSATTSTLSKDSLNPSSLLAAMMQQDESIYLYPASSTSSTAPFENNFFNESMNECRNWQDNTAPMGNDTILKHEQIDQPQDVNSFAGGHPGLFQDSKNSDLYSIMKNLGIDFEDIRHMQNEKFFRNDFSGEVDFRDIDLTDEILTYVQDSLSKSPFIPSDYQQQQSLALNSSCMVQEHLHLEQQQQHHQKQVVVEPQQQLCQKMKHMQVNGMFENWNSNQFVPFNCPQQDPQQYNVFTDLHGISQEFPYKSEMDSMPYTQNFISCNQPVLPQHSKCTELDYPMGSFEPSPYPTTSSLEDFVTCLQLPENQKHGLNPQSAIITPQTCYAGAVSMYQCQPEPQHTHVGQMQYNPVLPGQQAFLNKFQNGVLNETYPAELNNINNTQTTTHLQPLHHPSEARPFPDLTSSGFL
T2 sequence (P08238 whole entry partner): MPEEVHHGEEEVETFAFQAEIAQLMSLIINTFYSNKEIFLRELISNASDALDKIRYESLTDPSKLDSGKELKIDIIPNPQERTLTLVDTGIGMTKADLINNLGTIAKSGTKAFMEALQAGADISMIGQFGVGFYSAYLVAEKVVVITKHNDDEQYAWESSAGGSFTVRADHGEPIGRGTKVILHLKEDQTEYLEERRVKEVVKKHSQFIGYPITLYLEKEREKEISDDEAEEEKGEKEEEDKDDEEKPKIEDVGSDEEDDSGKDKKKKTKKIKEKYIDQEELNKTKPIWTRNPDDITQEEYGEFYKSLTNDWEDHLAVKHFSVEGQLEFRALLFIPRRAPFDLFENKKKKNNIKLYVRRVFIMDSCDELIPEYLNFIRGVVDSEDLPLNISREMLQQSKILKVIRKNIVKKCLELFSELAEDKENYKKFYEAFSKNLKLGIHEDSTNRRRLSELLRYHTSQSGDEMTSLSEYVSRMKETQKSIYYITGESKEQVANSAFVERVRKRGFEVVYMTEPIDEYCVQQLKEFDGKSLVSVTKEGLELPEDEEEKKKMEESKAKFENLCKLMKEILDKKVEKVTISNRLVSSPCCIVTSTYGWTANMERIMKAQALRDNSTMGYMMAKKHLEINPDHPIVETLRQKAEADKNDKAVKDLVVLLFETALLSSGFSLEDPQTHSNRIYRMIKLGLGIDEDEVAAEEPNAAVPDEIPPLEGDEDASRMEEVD
T2 sequence (O00170 whole entry partner): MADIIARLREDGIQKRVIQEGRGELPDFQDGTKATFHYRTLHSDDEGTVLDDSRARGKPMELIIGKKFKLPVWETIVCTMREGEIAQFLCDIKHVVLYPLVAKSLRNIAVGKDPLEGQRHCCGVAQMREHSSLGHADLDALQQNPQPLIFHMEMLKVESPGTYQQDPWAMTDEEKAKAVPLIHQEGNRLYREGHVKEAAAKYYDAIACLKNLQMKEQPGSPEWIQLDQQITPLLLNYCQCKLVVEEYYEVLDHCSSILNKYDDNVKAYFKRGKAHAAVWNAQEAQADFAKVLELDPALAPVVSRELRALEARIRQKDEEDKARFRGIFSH
T2 sequence (Q15185 whole entry partner): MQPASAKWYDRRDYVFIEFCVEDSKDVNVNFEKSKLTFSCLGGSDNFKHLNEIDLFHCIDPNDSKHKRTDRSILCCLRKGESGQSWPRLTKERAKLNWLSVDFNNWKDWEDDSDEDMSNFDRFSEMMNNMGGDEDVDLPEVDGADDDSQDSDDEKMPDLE
Description: 5×10^6 AAPA cells obtained in Example 4 were cultured in a 15 cm dish containing 25 ml DMEM medium supplemented with 10% FBS and 3.5 μg/ml tetracycline for 24 hrs. The cells were harvested and re-suspended in 10 ml cold PBS. The cells were lysed by sonication on ice using sonicator (Branson, Danbury Conn., USA) at amplitude of 10% for 30 cycles of 5 sec on and 15 sec off. The cellular debris was removed by centrifugation at 1,000 g for 10 min. For detection, 90 μl cell free lysates and different concentrations of 3MC were mixed and cultured in 96 well white polystyrene plate (Corning, USA) at room temperature. Renilla luciferase signals were determined by addition of coelenterazine to a final concentration of 0.35 μM. The result for detecting TCDD was shown in FIG. 3 (y=136.97x+2251.9, R^2=0.9794).
In addition, the cell free lysates and different concentrations of 3MC and TCDD were mixed and cultured in 96 well white polystyrene plate (Costar) at 37° C., respectively.

[3] = molecular target: T3, AHR-RL and HSP90-YFP (Homo sapiens, UniProt P35869); experiment: BRET assay in AAPH cells; format: cell-based; conditions: different concentrations, 37° C., dose-dependent (FIG. 2C)
T3 construct: expressed in transfected cells
T3 sequence (P35869 11-848): as the sequence (P35869 11-848) above
T3 sequence (P08238 whole entry partner): as the sequence (P08238 whole entry partner) above
T3 sequence (O00170 whole entry partner): as the sequence (O00170 whole entry partner) above
T3 sequence (Q15185 whole entry partner): as the sequence (Q15185 whole entry partner) above
Description: as §1
On the other hand, the AAPH cells, which were stably co-transfected with AHR-RL, AIP-HIS, P23-HIS and HSP-90YFP, were prepared and then mixed with different concentrations of 3MC and cultured in a 96-well white polystyrene plate (Corning, USA) at 37° C.

T1 sequence (P35869 11-848): as the sequence (P35869 11-848) above
T1 sequence (P08238 whole entry partner): as the sequence (P08238 whole entry partner) above
T1 sequence (O00170 whole entry partner): as the sequence (O00170 whole entry partner) above
T1 sequence (Q15185 whole entry partner): as the sequence (Q15185 whole entry partner) above

Structure (SMILES)	concentration at which BRET signal induction was first observed [1] [pM]	detection limits [2]	Renilla luciferase signals in the cell-free system [2]	lowest concentration at which AHR-RL signal degradation can be detected [2] [aM]	BRET signals ([1]; AAPA cells, different concentrations, 37° C. for 1 hour, dose-dependent (FIG. 2B))	BRET signals [3]
Clc1cc2c(cc1Cl)Oc1cc(Cl)c(Cl)cc1O2 [TCDD, 2,3,7,8-tetrachlorodibenzo-p-dioxin]	1	10^−16 M	increased	10		
Cc1ccc2cc3c(ccc4ccccc43)c3c2c1CC3 [3MC, 3-methylcholanthrene]	1	10^−16 M	increased	10	increased	suppressed
